From PMC11542593, “Vascular endothelial growth factor receptor 2 as a potential host target for the inhibition of enterovirus replication” (Journal of Virology, 2024)

Key:
Akt phosphorylation = assay: Western blot of phosphorylated Akt and total Akt in RD cells; assay type: cell-based
Description: (§1) Western blot analysis was performed as described previously ([26]). In brief, the indicated cell samples were lysed in RIPA buffer supplemented with protease inhibitors (Thermo Fisher Scientific, 78430). The cell lysates were then separated in 10% SDS-PAGE and transferred to a 0.45-µm nitrocellulose membrane. After blocking, the membrane was incubated with an against VP1 antibody (GeneTex, GTX132339), VEGFR1 antibody (Abcam, ab32152), VEGFR2 antibody (Abcam, ab134191), phosphorylated VEGFR2 antibody (Tyr951) (CST 4991), VEGFR3 antibody (Beyotime, AF6918), Akt antibody (CST 4685), phosphorylated Akt antibody (CST 4060), or GAPDH antibody (GeneTex, GTX627408) diluted 1:5,000 in primary antibody dilution buffer overnight at 4°C, followed by corresponding secondary staining. The blots were visualized by western horseradish peroxidase substrate and imaged with Gel Doc XR+.
(§2) Fig. S8. Viral reduction in RD cells with Akt inhibitor treatment. […] Significant inhibition of EV-A71 infection was found for both cell lysate (left) and supernatant (middle) using RT-qPCR analysis. The results represent the viral load in the cells treated with MK-2206 relative to that in DMSO-treated cells. Viral titer was also determined for inhibitor-treated samples in TCID50 assays (right). […] (C) The levels of VP1, phosphorylated Akt and total Akt protein were measured for samples treated with DMSO or MK-2206 using western blotting.
Fig. S9. […] (A) RD cells were infected with EV-A71 at an MOI of 1, and cell lysates were collected at the indicated times. Western blotting assays were then performed to assess the levels of phosphorylated Akt and total Akt. (B)The plasmids pVEGFR2 or pEmpty vector were transfected into RD cells. At the indicated times post-transfection, cells were harvested to detect the expression levels of phosphorylated Akt and total Akt by western blotting. […] Western blotting assays were then performed to assess the levels of phosphorylated Akt and total Akt. […] At 1 hpi, cells were harvested to detect the expression levels of phosphorylated Akt and total Akt by western blotting. […]

EV-A71 [1] = assay: Viral load reduction assay in RD cells (RT-qPCR, TCID50, VP1 Western blot); assay type: cell-based, Human enterovirus A71; settings: MOI 0.1, 24 h
Description: (§3) Detection of cellular mRNA expression and viral load was performed as described previously ([24]). In brief, the infected or mock-infected cells were lysed and applied to total RNA extraction by using the MiniBEST Universal RNA Extraction Kit (TaKaRa, Code No.9767). Viral RNA in the supernatant was extracted with the MiniBEST Viral RNA Extraction Kit (TaKaRa, Code No.9766). Reverse transcription was performed using the PrimeScript RT reagent Kit (TaKaRa, Code No.PR037A) with an oligo (dT) primer. The resultant cDNAs were used for qPCR assay with the Light Cycler 480 SYBR Green I Master Mix (Roche) to measure the mRNA expression level of cellular genes or viral load in supernatants. The relative viral gene copy was determined by RT-qPCR, using GAPDH as an internal reference.
(§4) The viral titer in the indicated samples was determined by TCID50 assay as described previously ([25]). Briefly, serially diluted samples from 10^−1 to 10^−8 in DMEM were inoculated to RD cells, BGMK cells, or MRC-5 in 96‐well plates. The cells were then incubated for 2 to 3 days at 37°C. TCID50 was calculated by counting the wells with cytopathic effect in infected cells using the Reed–Muench method.
as §1
The results represent cell viability in the EV-A71-infected RD cells or 2D human intestinal organoids treated with DMSO (Negative control), Pirodavir (Positive control), or indicated VEGFR inhibitor (10 µM) relative to those in mock-infected RD cells or 2D human intestinal organoids. […] Significant inhibition of EV-A71 infection was found for both cell lysate (left) and supernatant (right) using RT-qPCR analysis. The results represent the viral load in the cells treated with indicated inhibitors relative to that in DMSO-treated cells. (C) Viral titer was also determined for inhibitor-treated samples in TCID50 assays. […] (D) Representative images of immunofluorescence assay for selected inhibitors using Rabbit anti‐VP1 antibody (green). Nuclei are counterstained with DAPI (blue). Scale bar, 50 µm.
Nuclei are counterstained with DAPI (blue). Scale bar, 50 µm.
Fig. S2. […] The results represent the viral load in the cells treated with indicated concentration of VEGFR inhibitors relative to that in DMSO-treated cells. Viral titer was also determined for samples treated with indicated concentrations of VEGFR inhibitors in TCID50 assays.
as §2, with “Fig. S7.” for “Fig. S8.”, “with Src” for “with Akt”, “with Dasatinib” for “with MK-2206”, “(C) VP1 protein” for “(C) The”, “levels” for “levels of VP1, phosphorylated Akt and total Akt protein”, “or Dasatinib” for “or MK-2206”
Fig. S8. Viral reduction in RD cells with Akt inhibitor treatment. […] Significant inhibition of EV-A71 infection was found for both cell lysate (left) and supernatant (middle) using RT-qPCR analysis. […]

CVB1 = assay: Antiviral activity against CVB1 in BGMK cells (RT-qPCR, TCID50); assay type: cell-based, coxsackievirus B1; settings: 10 µM, 0.1 MOI, 24 h
Description: as §3, §4
The viral gene copy in the cell lysate is normalized with the transcript of GAPDH and presented. Viral titers were also detected by TCID50 assay. […] All experiments were independently repeated thrice.

VEGFR1 = tested on: VEGFR1; design: method as in PMID 17620431; settings: cited from earlier work
EV-A71 [2] = assay: EV-A71 inactivation (virucidal) assay; design: species or system Human enterovirus A71; settings: 10 µM, 2 h at 25°C, TCID50
Description: Fig. S5. […] (A) EV-A71 inactivation assay. […] (B) EV-A71 attachment assay. […] After 2 hpi, the infectious inoculum was removed and cells were washed again. The intracellular viral RNA load was then determined using RT-qPCR analysis. (C) EV-A71 entry assay.

## Cc1ccc(Nc2nccc(N(C)c3ccc4c(C)n(C)nc4c3)n2)cc1S(N)(=O)=O [Pazopanib]
Akt phosphorylation; 10 µM pretreatment
  Akt phosphorylation in mock-infected cells: significantly attenuated Akt phosphorylation
Akt phosphorylation; 10 µM, MOI 1, 1 hpi
  EV-A71-stimulated Akt phosphorylation: inhibited
EV-A71 [1]; indicated concentrations
  EV-A71 structural protein VP1 expression, dose dependence (Western blot): dose-dependent inhibition
EV-A71 [1]; indicated noncytotoxic concentrations
  EV-A71 viral load and viral titer, dose dependence: markedly reduced
CVB1
  decrease in viral load and viral titer: over 2 logs
VEGFR1
  IC50: 10 nM
EV-A71 [2]
  virucidal effect (EV-A71 virus titers vs DMSO): no virucidal effect
